Measured values from patent US20240246916A1, “7-NITRO-8-HYDROXYQUINOLINE DERIVATIVES, PREPARATION METHOD THEREFORE AND MEDICAL USE THEREOF” (Jiangsu Yahong Meditech Co., Ltd., priority 2021, published 2024).
≈ marks a conversion by molar mass, not a printed value.

How the values were obtained:
Format in all cases: cell-based
[1] = test system: Acinetobacter baumannii (carbapenem-resistant clinical isolates; ATCC19606); test: MIC by micro broth dilution (CLSI), Acinetobacter baumannii; conditions: Acinetobacter baumannii; for MIC50 / MIC90: ATCC19606, Clinical strain; for MIC50: read-out: MIC50; for MIC90: read-out: MIC90; for MIC: Standard strain ATCC19606, read-out: MIC
How it was run: (§1)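 MIC was read after 20 hours at 35±2° C in air, following CLSI 2019 M100 criteria. Test wells held cation-adjusted Mueller-Hinton broth, compound from 128 to 0.06 mg/L (DMSO-dissolved) and 10^5 CFU/mL final inoculum.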

[2] = test system: Bladder cancer cell line UM-UC-3; test: Inhibitory activity on cancer cells, CellTiter-Glo viability, UM-UC-3; conditions: Homo sapiens, UMUC3, 72 hours treatment
How it was run: (§2)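 HUVEC seeded at 2000, UM-UC-3 and RM-1 at 3000, LNCaP at 5000 cells/well, each in its own medium, 24 h before dosing. Compounds: 8-point 2.5-fold dilutions from 100 μmol, 72 h at 37 °C, 5% CO2. CellTiter-Glo luminescence; IC50 from growth-inhibition curves.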

[3] = test system: Prostate cancer cell line LNcaP; test: Inhibitory activity on cancer cells, CellTiter-Glo viability, LNcaP; conditions: Homo sapiens, 72 hours treatment
How it was run: as §2

[4] = test system: Staphylococcus aureus (methicillin-resistant and sensitive clinical isolates; ATCC29213); test: MIC by micro broth dilution (CLSI), Staphylococcus aureus; conditions: for MIC50 / MIC90: Clinical strain; for MIC50: read-out: MIC50; for MIC90: read-out: MIC90; for MIC: Standard strain ATCC29213, read-out: MIC
How it was run: as §1

[5] = test system: Mouse prostate cancer cell line RM1; test: Inhibitory activity on cancer cells, CellTiter-Glo viability, RM1; conditions: 72 hours treatment
Method: HUVEC (purchased from Allcells Biological Technology (Shanghai) Co., Ltd.); UM-UC-3 (ATCC); LNCaP (ATCC); RM-1 (purchased from Nanjing Cobioer Biosciences Co., Ltd.) (1) On the first day, the cells were seeded in a 96-well plate, and the previous medium was poured off. 5 mL of DPBS was added to wash the cells, and then removed by a pipette and discarded. Then, 1 mL of trypsin (0.25%) was added, and the plate was placed in a cell culture incubator at 37 °C, 5% CO2 for digestion, and taken out after about 2 to 5 minutes. New corresponding medium was added, and pipetted to resuspend the cells evenly, and the cells were then counted with an automated cell counter. Regarding HUVEC, the medium used was endothelial cell complete medium; regarding UM-UC-3, the medium used was 89 v % EMEM+10 v % fetal bovine serum+1 v % penicillin-streptomycin double anti-body; regarding LNcaP, the medium used was 89 v % RPM11640+10 v % fetal bovine serum+1 v % penicillin-streptomycin double anti-body; and regarding RM1, the medium used was 89 v % DMEM+10 v % fetal bovine serum+1 v % penicillin-streptomycin double anti-body. (2) HUVEC cells were seeded in columns 1 to 11 of a 96-well plate (Corning, Cat. No. 3610) at a density of 2000 cells per well in 100 μL of medium, and the medium free of cell was added to the wells of column 12. The other three types of cells were also seeded, wherein UM-UC-3 and RM-1 cells were seeded at a density of 3000 cells per well, and LNCap cells were seeded at a density of 5000 cells per well. Then, the plate was placed in an incubator at 37° C., 5% CO2 for 24 hours. (3) On the second day, the compounds of the present invention and the reference drug nitroxoline (obtained according to the preparation method disclosed in the prior art) were diluted in gradient (2.5 folds, started at 100 μmol) to obtain 8 dose points (there were a total of 8 columns of wells; the first column of wells had the highest concentration, the concentration decreased in turn, and the last column of wells had the lowest concentration). 10 μL of the compound diluted in gradient was added to the 100 μL of cells in column 1 to column 10 with an 8-channel pipette. 10 μL of the corresponding medium containing 0.33 v % DMSO was added to column 11 and column 12. The plate was incubated in an incubator at 37° C., 5% CO2 for 72 hours (note: column 11 was used as MAX well with cells and no compounds; and column 12 was used as MIN well with no cells and no compounds). (4) After treating with the compounds of the present invention for 72 hours, the cell viability detection reagents in the above CellTiter-Glo® assay kit were added to the 96-well plate at 50 μL per well according to the instructions. The plate was shaken on a shaker in the dark for 5 to 10 minutes, and then the cell activity was determined by a multifunctional microplate reader. Finally, the growth inhibition of the compounds of the present invention on the cells was plotted by XLFIT 5.3 software, and the IC50 values of the compounds of the present invention were calculated.

[6] = test system: Endothelial cell line HUVEC; test: Inhibitory activity on cells, CellTiter-Glo viability, HUVEC; conditions: Homo sapiens, 72 hours treatment
How it was run: as §2

[7] = test system: Escherichia coli (carbapenem-resistant clinical isolate; ATCC25922); test: MIC by micro broth dilution (CLSI), Escherichia coli; conditions: Escherichia coli; for MIC50 / MIC90: ATCC25922, Clinical strain; for MIC50: read-out: MIC50; for MIC90: read-out: MIC90; for MIC: Standard strain ATCC25922, read-out: MIC
How it was run: as §1

| MIC50 [1] [µg/mL] | MIC90 [1] [µg/mL] | MIC [1] [µg/mL] | IC50 [2] [µM] | IC50 [3] [µM] | MIC50 [4] [µg/mL] | MIC90 [4] [µg/mL] | MIC [4] [µg/mL] | IC50 [5] [µM] | MIC50 [7] [µg/mL] | MIC90 [7] [µg/mL] | MIC [7] [µg/mL] | SMILES | IC50 [6] [µM] |
| --- | --- | --- | --- | --- | --- | --- | --- | --- | --- | --- | --- | --- | --- |
| > 128 | > 128 | > 128 | 49.7 | 31.2 | > 128 | > 128 | > 128 | > 50 | > 128 | > 128 | > 128 | CN(C)C(=O)N1CCN(c2ccnc3c(O)c([N+](=O)[O-])cc(Cl)c23)CC1 [Example 35, 4-(5-Chloro-8-hydroxy-7-nitroquinolin-4-yl)-N,N-dimethylpiperazine-1-carboxamide] | 27 |
| > 128 | > 128 | > 128 | 4.71 | 0.58 | 64 (≈ 168 µM) | 128 (≈ 336 µM) | 128 (≈ 336 µM) | 1.42 | > 128 | > 128 | > 128 | CCOC(=O)N1CCN(c2ccnc3c(O)c([N+](=O)[O-])cc(Cl)c23)CC1 [Example 52, Ethyl 4-(5-chloro-8-hydroxy-7-nitroquinolin-4-yl)piperazine-1-carboxylate] | 0.53 |
| > 128 | > 128 | > 128 | 0.94 | 0.96 | > 128 | > 128 | > 128 | 0.46 | > 128 | > 128 | > 128 | COC(=O)N1CCN(c2ccnc3c(O)c([N+](=O)[O-])cc(Cl)c23)CC1 [Example 31, Methyl 4-(5-chloro-8-hydroxy-7-nitroquinolin-4-yl)-piperazine-1-carboxylate] | 1.63 |
| 128 (≈ 379 µM) | 128 (≈ 379 µM) | 128 (≈ 379 µM) | 6.72 | 1.87 | 8 (≈ 23.7 µM) | 16 (≈ 47.4 µM) | 8 (≈ 23.7 µM) | 3 | > 128 | > 128 | 128 (≈ 379 µM) | COC1CCN(c2ccnc3c(O)c([N+](=O)[O-])cc(Cl)c23)CC1 [Example 38, 5-Chloro-4-(4-methoxypiperidin-1-yl)-7-nitroquinolin-8-ol] | 2.36 |
| > 128 | > 128 | > 128 | > 50 | > 50 | 32 (≈ 87.5 µM) | 32 (≈ 87.5 µM) | 32 (≈ 87.5 µM) | > 50 | > 128 | > 128 | > 128 | CNC(=O)N1CCN(c2ccnc3c(O)c([N+](=O)[O-])cc(Cl)c23)CC1 [Example 44, 4-(5-Chloro-8-hydroxy-7-nitroquinolin-4-yl)-N-methylpiperazine-1-carboxamide] | > 50 |

The remaining lines, values behind:

| SMILES | MIC50 [1] [µg/mL] | MIC90 [1] [µg/mL] | MIC [1] [µg/mL] | IC50 [2] [µM] | IC50 [3] [µM] | MIC50 [4] [µg/mL] | MIC90 [4] [µg/mL] | MIC [4] [µg/mL] | IC50 [5] [µM] | MIC50 [7] [µg/mL] | MIC90 [7] [µg/mL] | MIC [7] [µg/mL] | IC50 [6] [µM] |
| --- | --- | --- | --- | --- | --- | --- | --- | --- | --- | --- | --- | --- | --- |
| CC1CCCN(c2ccnc3c(O)c([N+](=O)[O-])cc(Cl)c23)C1 (stereo not shown) [Example 66, 5-Chloro-4-(3-methylpiperidin-1-yl)-7-nitroquinolin-8-ol] | > 128 | > 128 | > 128 | 5.43 | 1.36 | 1 (≈ 3.11 µM) | 1 (≈ 3.11 µM) | 1 (≈ 3.11 µM) | 4.29 | > 128 | > 128 | > 128 | 4.54 |
| O=[N+]([O-])c1cc(F)c2c(OCC3CC3)ccnc2c1O [Example 72, 4-(Cyclopropylmethoxy)-5-fluoro-7-nitroquinolin-8-ol] | > 128 | > 128 | 64 (≈ 230 µM) | 6.28 | 1.89 | 2 (≈ 7.19 µM) | 4 (≈ 14.4 µM) | 2 (≈ 7.19 µM) | 3.03 | > 128 | > 128 | > 128 | 2.65 |
| N#Cc1ccnc2c(O)c([N+](=O)[O-])ccc12 [Example 76, 8-hydroxy-7-nitroquinoline-4-carbonitrile] | 32 (≈ 149 µM) | 64 (≈ 297 µM) | 32 (≈ 149 µM) | 38.8 | 15.2 | 32 (≈ 149 µM) | 32 (≈ 149 µM) | 32 (≈ 149 µM) | 13.3 | 32 (≈ 149 µM) | 64 (≈ 297 µM) | 32 (≈ 149 µM) | 18 |
| O=C1CCN(c2ccnc3c(O)c([N+](=O)[O-])cc(Cl)c23)CC1 [Example 56, 1-(5-Chloro-8-hydroxy-7-nitroquinolin-4-yl)piperidin-4-one] | > 128 | > 128 | > 128 | 52.8 | 47.6 | 64 (≈ 199 µM) | 64 (≈ 199 µM) | 128 (≈ 398 µM) | 68.5 | > 128 | > 128 | > 128 | 32.1 |
| O=[N+]([O-])c1cc(Cl)c2c(OCC3CC3)ccnc2c1O [Example 53, 5-Chloro-4-(cyclopropylmethoxy)-7-nitroquinolin-8-ol] | 128 (≈ 434 µM) | 128 (≈ 434 µM) | 128 (≈ 434 µM) | 0.86 | 1.08 | 8 (≈ 27.1 µM) | 16 (≈ 54.3 µM) | 16 (≈ 54.3 µM) | 3.06 | 128 (≈ 434 µM) | 128 (≈ 434 µM) | 128 (≈ 434 µM) | 0.59 |
| O=[N+]([O-])c1ccc2c(F)ccnc2c1O [Example 27, 4-Fluoro-7-nitroquinolin-8-ol] | > 128 | > 128 | > 128 | 4.11 | 11.9 | 64 (≈ 307 µM) | 64 (≈ 307 µM) | 64 (≈ 307 µM) | 13.2 | 128 (≈ 615 µM) | > 128 | 64 (≈ 307 µM) | 3.17 |
| O=[N+]([O-])c1cc(Cl)c2c(Oc3ccccc3)ccnc2c1O [Example 47, 5-Chloro-7-nitro-4-phenoxyquinolin-8-ol] | > 128 | > 128 | > 128 | 2.38 | 0.97 | 16 (≈ 50.5 µM) | 32 (≈ 101 µM) | 32 (≈ 101 µM) | 6.07 | > 128 | > 128 | > 128 | 1.59 |
| COc1ccnc2c(O)c([N+](=O)[O-])ccc12 [Example 21, 4-Methoxy-7-nitroquinolin-8-ol] | 32 (≈ 145 µM) | 64 (≈ 291 µM) | 32 (≈ 145 µM) | 4.84 | 6.75 | 4 (≈ 18.2 µM) | 8 (≈ 36.3 µM) | 8 (≈ 36.3 µM) | 6.8 | 8 (≈ 36.3 µM) | 32 (≈ 145 µM) | 8 (≈ 36.3 µM) | 10.3 |
